The values below are quoted from earlier work in patent publication US20230405017A1, “METHODS OF USING RHO KINASE INHIBITORS TO TREAT FRONTOTEMPORAL DEMENTIA” (Woolsey Pharmaceuticals, Inc., priority 2020, published 2023).

The structures appear in SMILES notation.

For the data set the following is noted: in vivo; 1-hydroxy (M3) metabolite of fasudil.

As for `O=S(=O)(c1cccc2c(O)nccc12)N1CCCNCC1` [M3], the half-life result was “about 8 hours”.
